# Data reported in patent publication US10947188B2, “Small molecule ferroptosis inducers” (THE TRUSTEES OF COLUMBIA UNIVERSITY IN THE CITY OF NEW YORK, priority 2016, dated 2021).
# Test system: HT-1080 cells
# Experiment: Cell viability assay (Alamar Blue), lethal compounds with or without modulators
# Type: cell-based
# Settings: HT-1080; 48 hrs
# Method: 1,000 cells per 36 μl were seeded in each well in 384-well plates. Lethal compounds were dissolved, and a twofold, 12-point dilution series was prepared in DMSO. Compound solutions were further diluted with media at 1:25, and 4 μl per well of the diluted solutions was added to cell cultures immediately after cells were seeded. […] When other cell-death-modulating compounds (100 nM sodium selenite, 1 μM cerivastatin, 100 μg/mL mevalonic acid) were used in cotreatments, they were supplemented to cell culture for 24 h before lethal compounds were added to cell culture, after which cells were further incubated for 24 h at 37° C. under 5% CO2. On the day of the viability measurement, we added 10 μl per well of 50% Alamar Blue diluted in media (Life Technologies) and further incubated the cells at 37° C. for 6 h. Fluorescence intensity (excitation/emission: 530/590) was measured with a Victor 3 plate reader (PerkinElmer), and the normalized viability was calculated as VL=(IL−I0)/(IV−I0), where VL, I0, IV, and IL are the normalized viability and the raw fluorescence intensities from the wells containing media, cells treated with a vehicle (negative control), and cells with the lethal compound (L), respectively. When the effect of a chemical modulator (M) on L was calculated, we instead used the equation VL|M=(IM,L−I0)/(IM,V−I0), where VL|M, IM,L and IM,V are the normalized viability, and fluorescence intensity from cells treated with […], respectively. The viability was typically measured in biological triplicate unless otherwise specified. A representative dose-response curve, the mean and standard error of normalized viability from one replicate were plotted. […]
row,Structure (SMILES),ferroptosis-inducing activity of FIN56 analogs
1,"O=S(=O)(NC1CCOCC1)c1ccc2c(c1)C(=NO)c1cc(S(=O)(=O)NC3CCOCC3)ccc1-2 [SRS8-18, 9-(hydroxyimino)-N2,N7-bis(tetrahydro-2H-pyran-4-yl)-9H-fluorene-2,7-disulfonamide]",complete loss of activity
2,"O=S(=O)(NC1CCOCC1)c1ccc2c(c1)C(=NOCCOCCOCCO)c1cc(S(=O)(=O)NC3CCOCC3)ccc1-2 [SRS11-66, 9-(2-(2-(2-hydroxyethoxy)ethoxy)ethoxyimino)-N2,N7-bis(tetrahydro-2H-pyran-4-yl)-9H-fluorene-2,7-disulfonamide]",complete loss of activity

# Same assay, conditions: HT-1080 cells; cotreatment
row,Structure (SMILES),"effect of ferroptosis inhibitors (α-tocopherol, deferoxamine) on lethality"
1,CN1CCCN(C(=O)c2cccc(-c3ccc(/C=C4/C(=O)Nc5ccc(Cl)cc54)o3)c2)CC1 [CX-6258],the lethality was not suppressed by αToc
2,N[C@@H]1CCCN(c2c(/C=C3\SC(=O)NC3=O)cccc2-c2ccccc2)C1 [AZD-1208],the lethality was not suppressed by αToc

# Same assay, conditions: HT-1080 cells; modulator cotreatment or pretreatment
row,Structure (SMILES),effect on FIN56 lethality
1,F/C(COc1ccc2c(c1)[nH]c1ccccc12)=C1/CN2CCC1CC2 [YM-53601],suppressed FIN56 lethality
2,"C[C@H]1O[C@@H](O[C@H]2[C@@H](O)C[C@H](O[C@H]3[C@@H](O)C[C@H](O[C@H]4CC[C@@]5(C)[C@H](CC[C@@H]6[C@@H]5C[C@@H](O)[C@]5(C)[C@@H](C7=CC(=O)OC7)CC[C@]65O)C4)O[C@@H]3C)O[C@@H]2C)C[C@H](O)[C@@H]1O [digoxin, Digoxin]",enhanced FIN56 lethality
3,O=C(O)CN(CC(=O)O)c1ccccc1OCCOc1ccccc1N(CC(=O)O)CC(=O)O [BAPTA],suppressed it
4,C=C(CC[C@]12O[C@H](C(=O)O)[C@@](O)(C(=O)O)[C@](C(=O)O)(O1)[C@H](OC(=O)/C=C/[C@@H](C)C[C@@H](C)CC)[C@H]2O)[C@@H](OC(C)=O)[C@H](C)Cc1ccccc1 [zaragozic acid A],suppressed FIN56 lethality
5,"O=[Se]([O-])[O-].[Na+].[Na+] [selenite, sodium selenite]",suppressed FIN56 lethality
6,"O=C(O)CN(CCOCCOCCN(CC(=O)O)CC(=O)O)CC(=O)O [EGTA, Ethyleneglycol-O,O′-bis(2-aminoethyl)-N,N,N′,N′-tetraacetic acid]",suppressed it
7,CNc1ccc2oc(C[C@H]3O[C@@]4(CC[C@H]3C)O[C@H]([C@H](C)C(=O)c3ccc[nH]3)[C@H](C)C[C@H]4C)nc2c1C(=O)O [A23187],enhanced FIN56 lethality
8,C[C@H](CCC(=O)O)C[C@H](C)C[C@H](C)C(=O)/C=C(\O)[C@H](C)C[C@H](C)C/C=C/[C@@H](C)[C@@H](O)[C@@H](C)[C@@H](O)C[C@@H]1CC[C@@](C)([C@H]2CC[C@@](C)([C@@H](C)O)O2)O1 [ionomycin],enhanced FIN56 lethality
9,"CC(C)=CCC/C(C)=C/CC/C(C)=C/COP(=O)(O)OP(=O)(O)O.N.N.N [FPP, farnesyl-PP]",suppressed the lethality of FIN56

# Test system: HT-1080 cells
# Experiment: Lethality of commercially available CIL41/70 structural analogs
# Type: cell-based
# Settings: Homo sapiens, tested once in technical triplicates
# Method: 1,000 cells per 36 μl were seeded in each well in 384-well plates. Lethal compounds were dissolved, and a twofold, 12-point dilution series was prepared in DMSO. Compound solutions were further diluted with media at 1:25, and 4 μl per well of the diluted solutions was added to cell cultures immediately after cells were seeded. […] When other cell-death-modulating compounds (100 nM sodium selenite, 1 μM cerivastatin, 100 μg/mL mevalonic acid) were used in cotreatments, they were supplemented to cell culture for 24 h before lethal compounds were added to cell culture, after which cells were further incubated for 24 h at 37° C. under 5% CO2. On the day of the viability measurement, we added 10 μl per well of 50% Alamar Blue diluted in media (Life Technologies) and further incubated the cells at 37° C. for 6 h. Fluorescence intensity (excitation/emission: 530/590) was measured with a Victor 3 plate reader (PerkinElmer), and the normalized viability was calculated as VL=(IL−I0)/(IV−I0), where VL, I0, IV, and IL are the normalized viability and the raw fluorescence intensities from the wells containing media, cells treated with a vehicle (negative control), and cells with the lethal compound (L), respectively. When the effect of a chemical modulator (M) on L was calculated, we instead used the equation VL|M=(IM,L−I0)/(IM,V−I0), where VL|M, IM,L and IM,V are the normalized viability, and fluorescence intensity from cells treated with […], respectively. The viability was typically measured in biological triplicate unless otherwise specified. A representative dose-response curve, the mean and standard error of normalized viability from one replicate were plotted. HT-1080 viability after modulator treatments corresponding to FIG. 3C and FIGS. 5E-5F is available in FIGS. 19A-19C.
# Their lethality was tested once in HT-1080 cells in technical triplicates.
row,Structure (SMILES),EC50 [µg/mL]
1,COc1ccc(CC(=O)O/N=C(\N)Cn2nc(C(F)(F)F)cc2C)cc1 [ZE3],> 20
2,N/C(Cc1cccc2ccccc12)=N\OC(=O)CCc1ccccc1 [VM4],> 20
3,COc1ccc(C/C(N)=N/OC(=O)CCc2ccccc2)cc1 [CB63],> 20
4,N/C(Cc1cccs1)=N\OC(=O)COc1ccc(Br)cc1Cl [CB78],> 20
5,N/C(Cc1ccc(Cl)cc1)=N\OC(=O)Cc1ccccc1 [ZE16],> 20
6,COc1ccccc1C/C(N)=N/OC(=O)/C=C/c1ccccc1 [CB62],8.63
7,N/C(Cc1cccc2ccccc12)=N\OC(=O)CC1CCCCC1 [CB85],> 20
8,CC(Oc1ccc(Cl)cc1Cl)C(=O)O/N=C(\N)Cc1ccc([N+](=O)[O-])cc1 (centres unmarked) [CB82],> 20
9,COc1ccc(C/C(N)=N/OC(=O)Cc2ccc(Cl)cc2)cc1OC [CB8],> 20
10,COc1ccccc1OCC(=O)O/N=C(\N)Cc1ccc(Cl)cc1Cl [CB101],> 20
11,CC(C)c1ccc(OCC(=O)O/N=C(\N)Cc2ccc(Cl)cc2Cl)cc1 [CB88],> 20
12,N/C(Cc1cccs1)=N\OC(=O)C12CC3CC(CC(C3)C1)C2 [CB69],2.09
13,COc1ccc(CC(=O)O/N=C(\N)Cc2ccc(Cl)c(Cl)c2)cc1OC [CB143],> 20
14,N/C(Cc1cccc2ccccc12)=N\OC(=O)CSc1ccccc1 [CB131],> 20
15,Cc1cc(C(F)(F)F)nn1C/C(N)=N/OC(=O)C1CCCCC1 [ZE15],> 20
16,CCC(C(=O)O/N=C(\N)Cc1cccc2ccccc12)c1ccccc1 (centres unmarked) [CB111],10.7
17,COc1ccc(CC(=O)O/N=C(\N)Cc2ccc(OC)c(OC)c2)cc1 [CB124],> 20
18,COc1ccccc1C/C(N)=N/OC(=O)COc1ccc(Br)cc1 [CB41],> 20
19,COc1ccccc1C/C(N)=N/OC(=O)COc1ccc2ccccc2c1 [CB61],> 20
20,COc1ccccc1C/C(N)=N/OC(=O)COc1cccc2ccccc12 [CB13],> 20
21,N/C(Cc1ccc([N+](=O)[O-])cc1)=N\OC(=O)CCCOc1ccccc1 [CB135],> 20
22,COc1ccc(C[C@@H](N)NOC(=O)C(c2ccccc2)c2ccccc2)cc1OC [CB54],> 20

row,Structure (SMILES),EC50 [µg/mL]
1,COc1ccccc1C/C(N)=N/OC(=O)COc1ccc(Cl)cc1 [CB52],> 20
2,Cc1cc(OCC(=O)O/N=C(\N)Cc2ccc(Cl)cc2Cl)cc(C)c1Br [CB106],> 20
3,N/C(Cc1cccc2ccccc12)=N\OC(=O)Cc1ccccc1[N+](=O)[O-] [CB114],> 20
4,N/C(Cc1cccs1)=N\OC(=O)COc1ccccc1Cl [CB68],> 20
5,Cc1cccc(OCC(=O)O/N=C(\N)Cc2ccc(Cl)cc2Cl)c1 [CB35],> 20
6,Cc1cccc(OCC(=O)O/N=C(\N)Cc2ccc(Cl)c(Cl)c2)c1C [CB112],> 20
7,O=C(O/N=C1\CCCCCN1)C(Cl)Cl [EN3],> 20
8,Cc1cc(OCC(=O)O/N=C(\N)Cc2ccc([N+](=O)[O-])cc2)cc(C)c1Br [CB95],> 20
9,COc1ccccc1C/C(N)=N/OC(=O)COc1cccc(C)c1 [CB26],> 20
10,Cc1ccccc1OCC(=O)O/N=C(\N)Cc1cccc2ccccc12 [CB46],> 20
11,COc1ccccc1C/C(N)=N/OC(=O)COc1ccccc1C [CB33],> 20
12,Cc1nn(C/C(N)=N/OC(=O)CC23CC4CC(CC(C4)C2)C3)c(C)c1Br [ZE2],15.6
13,N/C(Cn1c(C(F)(F)F)nc2ccccc21)=N\OC(=O)CC1CC2CCC1C2 (centres unmarked) [ZE11],> 20
14,N/C(COc1ccccc1)=N\OC(=O)C1CCCN1C(=O)c1ccco1 (centres unmarked) [EN7],> 20
15,COc1ccccc1CC(=O)O/N=C(\N)Cc1cccc2ccccc12 [CB108],> 20
16,COc1ccc(CC(=O)O/N=C(/N)Cn2nc(C)c([N+](=O)[O-])c2C)cc1 [ZE5],> 20
17,Cc1cc(Br)ccc1OCC(=O)O/N=C(\N)Cc1cccc2ccccc12 [CB107],> 20
18,N/C(Cc1ccc(Cl)cc1)=N\OC(=O)Cc1ccc([N+](=O)[O-])cc1 [CB17],> 20
19,Cc1ccccc1NC(=O)C/C(N)=N/OC(=O)C1CCCN1C(=O)c1ccco1 (centres unmarked) [EN5],> 20
20,COc1ccccc1C/C(N)=N/OC(=O)COc1cc(C)c(Cl)c(C)c1 [CB49],7.23
21,COc1ccc(C/C(N)=N/OC(=O)COc2ccc3ccccc3c2)cc1 [CB53],> 20
